Measured values: patent EP0033503A2, “Medicaments with cytostatic activity and use of cyclic compounds, in which the heterocyclic N-ring atoms are substituted by several glycidyl groups, in pharmaceutical compositions” (Henkel Kommanditgesellschaft auf Aktien, priority 1980, dated 1981)
Where two headings read alike, the source gives them in different places.

System: Tumorart P 388 (Leukämie)
Test: Survival of mice bearing P 388 leukemia (NCI protocol 1200), T/C
Assay type: in vivo, Maus
Details: for Testergebnis in % T/C: repeat experiment; for durchschnittliche Lebensdauer der Testgruppe: 200 mg/kg per single dose; for response vs control in vivo at 25 mg/kg / response vs control in vivo at 50 mg/kg / response vs control in vivo at 100 mg/kg / response vs control in vivo at 200 mg/kg: Mus musculus; for T/C-Wert: unit not given; for Verlängerungsrate T/C: 9 injections
Description: Die nachfolgenden Versuche wurden durchgeführt nach Testvorschriften des National Cancer Institute Bethesda, Maryland 200014, veröffentlicht in Cancer Chemotherapy Reports" Part. 3, September 1972, Vol. 3, Nr. 2. Als Wirksubstanz wurde 1,3-Diglycidyl-benzimidazolon des i vorstehenden Beispiels 1 verwendet. Die Substanz wurde als wäßrige, 1%ige Injektionslösung unmittelbar vor der Applikation frisch hergestellt.
Bei Mäusen wurde gemäß Protokoll 1200 (Seite 91, c.) die Tumorart P 388 (Leukämie) i.p. mit 10^6 Zellen/Maus gesetzt. Die unbehandelten Tiere hatten eine mittlere überlebensdauer von 9,9 Tagen.
Es wird der Wirkstoff appliziert. Der Wirkstoff wird dabei in 9.Gaben in unterschiedlichen Versuchsreihen einmal zu je 200 mg/kg und in einer anderen zu 100 mg/kg und in einer dritten Versuchsreihe zu je 50 mg/kg verabreicht. In beiden Fällen wird eine signifikante Verlängerung der Lebensdauer der behandelten Testtiere gegenüber der Kontrollgruppe der nicht behandelten Tiere erzielt. […] Bei der Testgruppe mit der Dosis von 100 mg/kg beträgt die durchschnittliche Lebenserwartung der Versuchstiere 18 Tage, T/C 181 %. Die Gruppe mit der Dosis 50 mg/kg hatte eine durchschnittliche Lebenserwartung von 15,3 Tagen, T/C 154 %. […]

[1] = 100 mg/kg per single dose, 9 doses
[2] = P388, 50 mg/kg per single dose, first series, unit inferred, read-out: Testergebnis T/C (T/C-Wert)
[3] = P388, 100 mg/kg per single dose, 9 doses, first test series, read-out: Verlängerungsrate T/C (Testergebnis in % T/C)
[4] = P388, 100 mg/kg per single dose, first series, unit inferred, read-out: Testergebnis T/C (T/C-Wert)
[5] = P388, 200 mg/kg per single dose, 9 doses, first test series, read-out: Verlängerungsrate T/C (Testergebnis in % T/C)
[6] = P388, 200 mg/kg per single dose, first series, unit inferred, read-out: Testergebnis T/C (T/C-Wert)
[7] = P388, 50 mg/kg per single dose, 9 doses, first test series, read-out: Verlängerungsrate T/C (Testergebnis in % T/C)

O=c1ccn(CC2CO2)c(=O)n1CC1CO1 (centres unmarked) [Beispiel 13, N,N'-Diglycidyluracil]
durchschnittliche Lebenserwartung der Versuchstiere [1]: 16,0 Tage
Testergebnis in % T/C (100 mg/kg): 152%
durchschnittliche Lebensdauer der Testgruppe (9 doses): 24 Tage
Testergebnis in % T/C (200 mg/kg): 198%
response vs control in vivo at 25 mg/kg (P388, 25 mg/kg, second series, unit inferred, read-out: Testergebnis T/C (T/C-Wert)): 114%
response vs control in vivo at 50 mg/kg [2]: 131%
response vs control in vivo at 50 mg/kg (P388, 50 mg/kg, second series, unit inferred, read-out: Testergebnis T/C (T/C-Wert)): 124%
response vs control in vivo at 100 mg/kg [3]: 153%
response vs control in vivo at 100 mg/kg [4]: 156%
response vs control in vivo at 100 mg/kg (P388, 100 mg/kg, second series, unit inferred, read-out: Testergebnis T/C (T/C-Wert)): 152%
response vs control in vivo at 200 mg/kg [5]: 230%
response vs control in vivo at 200 mg/kg [6]: 230%
response vs control in vivo at 200 mg/kg (P388, 200 mg/kg, second series, unit inferred, read-out: Testergebnis T/C (T/C-Wert)): 198%

O=c1c(F)cn(CC2CO2)c(=O)n1CC1CO1 (centres unmarked) [Diglycidyl-5-floururacil, N,N'-Diglycidyl-5-fluoruracil]
response vs control in vivo at 50 mg/kg [2]: 179%
response vs control in vivo at 100 mg/kg [4]: 300%

CC1(C)C(=O)N(CC2CO2)C(=O)N1CN1C(=O)N(CC2CO2)C(=O)C1(C)C (centres unmarked) [[drawing] r20]
response vs control in vivo at 200 mg/kg [5]: 153%

O=c1n(-c2ccccc2)c(=O)n(CC2CO2)n1CC1CO1 (centres unmarked) [Beispiel 27, 1,2-Diglycidyl-4-phenylurazol]
T/C-Wert (25 mg/kg per single dose): 120
response vs control in vivo at 50 mg/kg [2]: 120%
response vs control in vivo at 100 mg/kg [4]: 150%
response vs control in vivo at 200 mg/kg [6]: 200%

O=c1c2cc3c(=O)n(CC4CO4)c(=O)c3cc2c(=O)n1CC1CO1 (centres unmarked) [Beispiel 16, N,N^I-Diglycidylbenzoltetracarbonsäure-(1,2,4,5,)diimid]
Verlängerungsrate T/C (6,25 mg/kg per single dose): 156%
Verlängerungsrate T/C (12,5 mg/kg per single dose): 200%

CCCCCC(=O)c1ccc2c(c1)n(CC1CO1)c(=O)n2CC1CO1 (centres unmarked) [R2 -H R3 -C-C5H11 " O, N,N-Diglycidyl-5-caproyl-benzimidazolon]
response vs control in vivo at 50 mg/kg [7]: 167%
response vs control in vivo at 100 mg/kg [3]: 198%
response vs control in vivo at 200 mg/kg [5]: 130%

COc1ccc2c(c1)n(CC1CO1)c(=O)n2CC1CO1 (centres unmarked) [R2 -H R3 -O-CH3, N,N-Diglycidyl-5-methoxy-benzimidazolon]
response vs control in vivo at 50 mg/kg [7]: 175%
response vs control in vivo at 100 mg/kg [3]: 225%

O=c1n(CC2CO2)c2ccccc2n1CC1CO1 (centres unmarked) [Beispiel 1, N,N'-Digylcidyl-Benzimidazolon]
Testergebnis in % T/C (25 mg/kg): 133%
durchschnittliche Lebenserwartung der Versuchstiere (50 mg/kg per single dose, 9 doses): 15,3 Tage
Testergebnis in % T/C (50 mg/kg): 136%
durchschnittliche Lebenserwartung der Versuchstiere [1]: 18 Tage
Testergebnis in % T/C (100 mg/kg): 161%
durchschnittliche Lebensdauer der Testgruppe (9 doses): 20 Tage
Testergebnis in % T/C (200 mg/kg): 166%
response vs control in vivo at 50 mg/kg [7]: 154%
response vs control in vivo at 100 mg/kg [3]: 181%
response vs control in vivo at 200 mg/kg [5]: 202%

O=C1N(CC2CO2)CCN1CC1CO1 (centres unmarked) [Beispiel 18 a), Diglycidylethylenharnstcff]
response vs control in vivo at 25 mg/kg (P388, read-out: Testergebnis T/C (T/C-Wert), 25 mg/kg, second series, unit inferred): 119%
response vs control in vivo at 50 mg/kg (P388, read-out: Testergebnis T/C (T/C-Wert), 50 mg/kg per single dose, first series, unit inferred): 130%
response vs control in vivo at 50 mg/kg (P388, read-out: Testergebnis T/C (T/C-Wert), 50 mg/kg, second series, unit inferred): 142%
response vs control in vivo at 100 mg/kg (P388, read-out: Testergebnis T/C (T/C-Wert), 100 mg/kg per single dose, first series, unit inferred): 155%
response vs control in vivo at 100 mg/kg (P388, read-out: Testergebnis T/C (T/C-Wert), 100 mg/kg, second series, unit inferred): 158%
response vs control in vivo at 200 mg/kg (P388, read-out: Testergebnis T/C (T/C-Wert), 200 mg/kg per single dose, first series, unit inferred): 206%
response vs control in vivo at 200 mg/kg (P388, read-out: Testergebnis T/C (T/C-Wert), 200 mg/kg, second series, unit inferred): 213%

O=c1n(CC2CO2)c(=O)n(CC2CO2)n1CC1CO1 (centres unmarked) [Beispiel 26, 1,2,4-Triglycidylurazol]
T/C-Wert (25 mg/kg per single dose): >260
T/C-Wert (6,25 mg/kg per single dose): 180
T/C-Wert (12,5 mg/kg per single dose): 230
response vs control in vivo at 50 mg/kg [2]: 298%

O=c1c(I)cn(CC2CO2)c(=O)n1CC1CO1 (centres unmarked) [Diglycidyl-5-joduracil, N,N'-Diglycidyl-5-ioduracil]
response vs control in vivo at 50 mg/kg [2]: 124%
response vs control in vivo at 100 mg/kg [4]: 166%
response vs control in vivo at 200 mg/kg [6]: 189%

O=c1cnn(CC2CO2)c(=O)n1CC1CO1 (centres unmarked) [Beispiel 20, 2,4-Diglycidyl-2,3,4,5-tetrahydro-1,2,4-triazin-3,5-dion]
response vs control in vivo at 50 mg/kg [2]: 189%
response vs control in vivo at 100 mg/kg [4]: 228%
